Where a name gives a salt, the structure may show the parent alone. Read-outs that look alike come from different tables or passages of the source.

The test system of data set [1] is MDA-MB-231 human breast cancer cells. As to the kind of experiment: MTT assay, in vitro inhibitory activity on cells. The class given is cell-based. The settings on record: typically 48 hours. From the text: (§1) In this example, MTT assay was used to detect in vitro inhibitory activity of the compounds prepared according to the above examples on the cells.
(§2) Dimethyl sulfoxide (DMSO) is capable of dissolving formazan in cells, and absorbance value can be measured at a wavelength of 490 nm by an enzyme-linked immunometric meter, which reflects the number of living cells. Within a certain range of the number of cells, the amount of MTT crystals formed is proportional to the number of living cells.
(§3) 2. Culturing in a 37° C., 5% CO2 incubator and keeping the cells adhering to the walls of the wells.
(§4) 4. Carefully removing the supernatant, gently washing with PBS and discarding the supernatant again.
(§5) 6. Terminating culturing and carefully discarding the medium in each well. 7. Adding 150 μl dimethyl sulfoxide into each well, shaking for 10 minutes at low speed in a shaker, to make crystals fully dissolved.
(§6) 8. Measuring the absorbance of each well at 490 nm by an enzyme-linked immunometric meter.

The test system of a further data set is K562 leukemia cells. In words: MTT assay, in vitro inhibitory activity on cells. The settings on record: Homo sapiens, typically 48 hours, read-out: IC50 K562 Chronic myelogenous leukemia cells. The class given is cell-based.
Excerpt: as §1, §2, §3, §4, §5, §6

The test system of data set [2] is Saos-2 human osteosarcoma cells. As to the kind of experiment: MTT assay, in vitro inhibitory activity on cells. The settings on record: typically 48 hours. It counts as cell-based.
Excerpt: as §1, §2, §3, §4, §5, §6

The subject of data set [3] is Ovcar-3 human ovarian cancer cells. In words: MTT assay, in vitro inhibitory activity on cells. It counts as cell-based. The settings on record: typically 48 hours.
Excerpt: as §1, §2, §3, §4, §5, §6

Data set [4] is described as follows: Pharmacokinetic studies in male SD rats. It counts as in vivo. The settings on record: rat, plasma; for MRT inf: read-out: MRT(0-∞). The protocol:
The compound prepared in Example 27 of the present invention was illustratively selected for this experiment. The pharmaceutical formulation for oral administration was made by dissolving the compound in physiological saline to prepare 3 mg/ml of suspension. The pharmaceutical formulation for caudal vein injection was made by using a mixed solution of DMSO, polyoxyethylene castor oil and physiological saline in the volume ratio of 1:30:69 to prepare 2.5 mg/ml of solution.
Male SD rats, each group of three, weighing 150 g-250 g, were provided by Shanghai SIPPR-BK Laboratory Animal Co. Ltd., China. The tested rats were acclimatized to the environment for 2-4 days prior to the experiment, and fasted for 8-12 hours before administration. The rats drank water freely 2 hours after administration, and were fed food 4 hours after administration.
1) Taking blank plasma (zero-hour sample) after the SD rats were fasted but allowed drinking water freely for 12 hours;
2) Administering to three rats in Step 1) the compound prepared in Example 27 at 15 mg/kg by gavage (Intragastric administration, IG);
administering to another three rats in Step 1) the compound prepared in Example 27 at 3 mg/kg by caudal vein (Intravenous administration, IV);
3) Collecting sequentially blood from retinal venous plexus of the rats at 10 min, 30 min, 1 h, 2 h, 4 h, 6 h, 8 h, 10 h, 24 h after gavage administration, placing into the heparin-coated EP tubes, taking the upper plasma after centrifuging for 5 min at 8000 rpm/min, and storing at −20° C. until LC-MS/MS analysis;
4) Calculating the pharmacokinetic parameters using WinNonlin software according to the blood concentration—time data obtained from Step 3), shown in Table 4;
5) Collecting sequentially blood from retinal venous plexus of the rats at 5 min, 15 min, 30 min, 1 h, 2 h, 4 h, 8 h, 24 h after caudal vein administration, placing into the heparin-coated EP tubes, taking the upper plasma after centrifuging for 5 min at 8000 rpm/min, and storing at −20° C. until LC-MS/MS analysis;
6) Calculating the pharmacokinetic parameters using WinNonlin software according to the blood concentration—time data obtained from Step 5), shown in Table 4.

Turning to `Cc1cn(-c2cc(C(=O)Nc3ccc(F)c(C#Cc4ccc(-c5ncc(C(F)(F)F)[nH]5)nc4)c3)cc(C(F)(F)F)c2)cn1` [Example 24, 3-trifluoromethyl-5-(4-methylimidazol-1-yl)-N-[3-(2-(5-trifluoromethyl-1H-imidazol-2-yl)pyridin-5-yl)ethynyl-4-fluorophenyl]-benzamide], the IC50 in data set [1] is 1.17 µM; with K562 leukemia cells, 0.94 µM.

For the compound `Cc1ccc(NC(=O)Nc2ccc(CN3CCN(C)CC3)c(C(F)(F)F)c2)cc1C#Cc1cnc2[nH]ccc2n1` [Example 2, N-[3-((1H-pyrrolo[2,3-b]pyrazin-5-yl)ethynyl)-4-methylphenyl]-N′-[4-((4-methylpiperazin-1-yl)methyl)-3-trifluoromethylphenyl]urea], the IC50 is 0.27 µM in data set [2], 0.11 µM in data set [1], 2.06 µM with K562 leukemia cells and 3.09 µM in data set [3].

On to `Cc1ccc(NC(=O)c2ccc(CN3CCN(C)CC3)cc2)cc1C#Cc1ccc(-c2ncc(C#N)[nH]2)nc1` [Example 21], for which the IC50 in data set [1] was 2.06 µM; in the data set with K562 leukemia cells, 3.59 µM.

`Cc1ccc(C(=O)Nc2ccc(CN3CCN(C)CC3)c(C(F)(F)F)c2)cc1C#Cc1cnc2[nH]ccc2n1` [Example 27, hydrochloride]: in data set [4] (iv, I.V. 3 mg/kg), the AUC(0-inf) came out at 3.38 µg·h/mL, the AUC(0-t) turned out to be 3.3 µg·h/mL, the Cmax came to 1.27 µg/mL and the half-life is 4.93 h. Moreover, in data set [4] (iv, I.V. 3 mg/kg), the MRT inf came out at 4.92 h. In data set [4] (oral, I.G. 15 mg/kg vs I.V. 3 mg/kg, read-out: F (oral bioavailability)), the bioavailability was found to be 32.6%. In data set [4] (po, I.G. 15 mg/kg), the AUC(0-inf) was 5.22 µg·h/mL, the AUC(0-t) worked out at 5.37 µg·h/mL, the concentration peaked (Cmax) at 0.376 µg/mL and the Tmax stood at 7.33 h. In addition, in data set [4] (po, I.G. 15 mg/kg), the half-life was 4.1 h and the MRT inf came to 7.71 h.

`Cc1cn(-c2cc(NC(=O)c3ccc(F)c(C#Cc4cnc(-c5nc[nH]n5)n4C)c3)cc(C(F)(F)F)c2)cn1` [Example 16, 3-[1-methyl-2-([1,2,4]-1H-triazol-3-yl)imidazol-5-yl]ethynyl-4-fluoro-N-[3-trifluoromethyl-5-(4-methylimidazol-1-yl)phenyl]benzamide]: the IC50 in data set [2] turned out to be 1.16 µM; in data set [1] it was 1.27 µM; in data set [3], 4.72 µM.

As to `CNc1nc2cc(C#Cc3cc(NC(=O)Nc4ccc(CN5CCN(C)CC5)c(C(F)(F)F)c4)ccc3C)ccn2n1` [Example 7], the IC50 in the data set on K562 leukemia cells was 5.07 µM.

As to `Cc1ccc(NC(=O)Nc2ccc(CN3CCN(C)CC3)c(C(F)(F)F)c2)cc1C#Cc1cn(C)c(-c2ncc(C(F)(F)F)[nH]2)n1` [Example 14, N-[4-methyl-3-((1-methyl-5′-trifluoromethyl-1H,1′H-[2,2′-diimidazol]-4-yl)ethynyl)phenyl]-N′-[4-((4-methylpiperazin-1-yl)methyl)-3-trifluoromethylphenyl]urea], the IC50 came out at 1.21 µM in data set [1] and 0.16 µM in the data set on K562 leukemia cells.

For `CNC(=O)c1cc(Oc2cc(NC(=O)c3ccc(F)c(C#Cc4cnc(-c5nc[nH]n5)n4C)c3)cc(C(F)(F)F)c2)ccn1` [Example 17, 4-fluoro-3-[1-methyl-2-([1,2,4]-1H-triazol-3-yl)imidazol-5-yl]ethynyl-N-[3-trifluoromethyl-5-(2-N-methylcarbamoylpyridin-4-yl)oxy]phenylbenzamide], the figures for the 50% inhibitory concentration (IC50) in data set [2], in data set [1] and in data set [3] were 0.64 µM, 0.98 µM and 3.98 µM, respectively.

As for `Cc1ccc(NC(=O)c2ccc(CN3CCN(CCO)CC3)c(C(F)(F)F)c2)cc1C#Cc1cn(C)c(-c2ncc(C(F)(F)F)[nH]2)n1` [Example 15], the IC50 was determined as 0.56 µM in data set [1] and 0.37 µM in the data set with K562 leukemia cells.

Consider `Cc1ccc(C(=O)Nc2ccc(CN3CCN(C)CC3)c(C(F)(F)F)c2)cc1C#Cc1ccc(-c2nc[nH]n2)nc1` [Example 25, 4-methyl-3-((2-(1,2,4-triazol-3-yl)pyridin-5-yl)ethynyl)-N-[4-((4-methylpiperazin-1-yl)methyl)-3-trifluoromethylphenyl]benzamide], for which the IC50 in data set [1] was determined as 2.86 µM; with K562 leukemia cells, 3.58 µM.

Regarding `Cc1ccc(C(=O)Nc2ccc(CN3CC[C@@H](N(C)C)C3)c(C(F)(F)F)c2)cc1C#Cc1ccc(-c2ncc(C(F)(F)F)[nH]2)nc1` [Example 20, 4-methyl-3-((2-(5-trifluoromethyl-1H-imidazol-2-yl)pyridin-5-yl)ethynyl)-N—[(R)-4-((3-dimethylaminotetrahydropyrrol-1-yl)methyl)-3-trifluoromethylphenyl]benzamide], the IC50 in data set [1] is 4.72 µM; in the data set on K562 leukemia cells it was 2.21 µM.

Regarding `Cc1ccc(C(=O)Nc2ccc(CN3CCN(C)CC3)c(C(F)(F)F)c2)cc1C#Cc1cn(C)c(-c2ncc[nH]2)n1` [Example 10, 4-methyl-3-((1-methyl-1H,1′H-[2,2′-diimidazol]-4-yl)ethynyl)-N-[4-((4-methylpiperazin-1-yl)methyl)-3-trifluoromethylphenyl]benzamide], the IC50 turned out to be 0.87 µM in data set [2], 1.42 µM in data set [1], 1.92 µM in the data set on K562 leukemia cells and 3.19 µM in data set [3].

Consider `Cc1ccc(C(=O)Nc2ccc(CN3CC[C@H](N(C)C)C3)c(C(F)(F)F)c2)cc1C#Cc1ccc(-c2ncc(F)[nH]2)nc1` [Example 22, 4-methyl-3-((2-(5-fluoro-1H-imidazol-2-yl)pyridin-5-yl)ethynyl)-N-[(S)-4-((3-dimethylaminotetrahydropyrrol-1-yl)methyl)-3-trifluoromethylphenyl]benzamide], for which the concentration for half-maximal inhibition (IC50) turned out to be 1.15 µM in data set [1] and 4.07 µM in the data set on K562 leukemia cells.

With `Cc1ccc(NC(=O)Nc2ccc(CN3CCN(C)CC3)c(C(F)(F)F)c2)cc1C#Cc1ccn2nc(N(C)C)nc2c1` [Example 8], the IC50 in the data set with K562 leukemia cells stood at 0.42 µM.

With `Cc1ccc(NC(=O)Nc2ccc(CN3CC[C@@H](N(C)C)C3)c(F)c2)cc1C#Cc1cn(C)c(-c2ncc(C(F)(F)F)[nH]2)n1` [Example 13, N-[4-methyl-3-((1-methyl-5′-trifluoromethyl-1H,1′H-[2,2′-diimidazol]-4-yl)ethynyl)phenyl]-N′—(R)-[4-((3-dimethylaminotetrahydropyrrol-1-yl)methyl)-3-fluorophenyl]urea], the IC50 in data set [1] was found to be 0.29 µM; with K562 leukemia cells, 0.52 µM.

`Cc1ccc(NC(=O)Nc2ccc(CN3CCN(C)CC3)c(C(F)(F)F)c2)cc1C#Cc1ccc(-c2ncc(C#N)[nH]2)nc1` [Example 23, N-[3-(2-(5-acetonitrile-1H-imidazol-2-yl)pyridin-5-yl)ethynyl-4-methylphenyl]-N′-[3-trifluoromethyl-4-(4-methylpiperazin-1-ylmethyl)phenyl]urea]: the IC50 with K562 leukemia cells is 3.31 µM.

Turning to `CNC(=O)c1cc(Oc2ccc(NC(=O)c3ccc(C)c(C#Cc4ccc(-c5nc[nH]n5)nc4)c3)cc2)ccn1` [Example 26, 4-methyl-3-[2-([1,2,4]-1H-triazol-3-yl)pyridin-5-yl]ethynyl-N-[(2-N-methylcarbamoylpyridin-4-yl)oxy]phenylbenzamide], the IC50 with K562 leukemia cells stood at 5.91 µM.

On to `Cc1ccc(NC(=O)Nc2ccc(CN3CCN(C)CC3)c(C(F)(F)F)c2)cc1C#Cc1cnc2[nH]ncc2c1` [Example 1, N-[3-((1H-pyrazolo[3,4-b]pyridin-5-yl)ethynyl)-4-methylphenyl]-N′-[4-((4-methylpiperazin-1-yl)methyl)-3-trifluoromethylphenyl]urea], for which the IC50 came to 2.79 µM in data set [1] and 4.13 µM with K562 leukemia cells.

Values taken from patent publication US9255107B2 (NANJING SANHOME PHARMACEUTICAL CO., LTD., priority 2012, dated 2016).
